Measurements from patent US10314813B2, “Antimicrobial compositions for Clostridium difficile” (University of Central Florida Research Foundation, Inc., priority 2017, dated 2019).

Columns and labels:
[1] = tested on: Clostridium difficile 630; assay: MIC broth dilution per CLSI M11-A8, modified Brucella broth; type: cell-based; settings: strain 630; Brucella broth mix + yeast, no blood/hemin; n = 12
Procedure: (§1) MIC experiments for Puupehenone were carried out in accordance with CLSI M11-A8 for broth dilutions. The levels of antimicrobial were achieved via serial dilution and listed as follows; 32 ug/mL, 16 ug/mL. 8 ug/mL, 4 ug/mL, 2 ug/mL, 1 ug/mL, 0.5 ug/mL, 0.25 ug/mL, 0.125 ug/mL, 0.0625 ug/mL/. Metranidazole was used a positive control. The only deviation from the CLSI was a modification to the media. […] This was noted due to comparisons with previous BHIS experiments. Thus, the media was modified to resemble the BHIS media, with only Brucella broth mix (28 g/L) and yeast (5 g/L). The reason for the decreased efficacy of the drug when in blood based media is still being investigated. The MICs against different C. difficile strains (ATCC9689, NAP1027, and 630 were determined for both Puupehone and Matranidazole See Table 1.

[2] = tested on: Clostridium difficile ATCC 9689; assay: as above; type: cell-based; settings: strain ATCC 9689; Brucella broth mix + yeast, no blood/hemin; n = 12
Procedure: as §1

[3] = tested on: Clostridium difficile NAP1027; assay: as above; type: cell-based; settings: strain NAP1027; Brucella broth mix + yeast, no blood/hemin; n = 12
Procedure: as §1

[4] = tested on: C. difficile strain VPI 10463 or strain ATCC 9689; assay: 96-well growth inhibition test in BHIS media, optical density readout; type: cell-based, Clostridium difficile; settings: puupehenone in MeOH, 40 μL-well, Trial 1 (0 μL-well 0.0816)
Procedure: Tests were performed in a Coy anaerobic chamber (Coy Labs Grass Lake, Mich.). The compound Puupehenone was dissolved in either methanol or DMSO for testing. Using a 96-well plate, 200 μL of BHIS media was added to 12 wells. One was the control (BHIS media alone). The sequential nine wells have increments of 5 μL of puupehenone. The remaining two wells have no puupehenone but one has 20 μL and another has 40 μL of methanol. These last wells are a separate test to determine if methanol influences the growth of C. difficile. Then 10 μL of C. difficile strain VPI 10463 or strain ATCC 9689 was added to each well except for the control. Trials with DMSO were performed in increments of 2 μL of puupehenone. Effects of puupehenone on C. difficile were tested based on optical density (e.g. OD500 nm, OD600 nm or OD630 nm, inter alia) using an optical reader as is standard in the art. Results

Row | SMILES | MIC [1] [µg/mL] | MIC [2] [µg/mL] | MIC [3] [µg/mL] | optical density (growth of C. difficile) [4]
1 | CC1(C)CCC[C@]2(C)[C@H]3C=C4C=C(O)C(=O)C=C4O[C@@]3(C)CC[C@@H]12 [Puupehenone, puupehenone] | 8 | 4 | 8 | 0.0742
2 | Cc1ncc([N+](=O)[O-])n1CCO [Metranidazole, reference compound] | 0.5 | 0.25 | 0.25 | –
